Experimental data from patent US12011506B2, “Combination and uses and treatments thereof” (priority 2017, dated 2024).
Read-outs that look alike come from different tables or passages of the source.

Tests used:
[1] = Drug interaction trials: effect of rilpivirine on pharmacokinetics of coadministered drugs; conditions: No Effect = 1.00; for AUC(0-last) of coadministered drug, geometric mean ratio with/without EDURANT: footnote c
[2] = Drug interaction trials: effect of coadministered drugs on pharmacokinetics of dolutegravir; format: in vivo, human
Excerpt: (§1) These recommendations are based on either drug interaction trials of individual components or predicted interactions due to the expected magnitude of interaction and potential for serious adverse events or loss of efficacy.

[3] = Established and other potentially significant drug interactions with JULUCA (effect on concentration); format: in vivo, human; conditions: based on drug interaction trials or predicted interactions; for Effect on Concentration of Rilpivirine / Effect on Concentration of Dolutegravir: concomitant drug with JULUCA
Excerpt: as §1

[4] = human, in vivo
[5] = coadministered drug 2 h after dolutegravir 50 mg single dose
[6] = simultaneous administration (fasted), dolutegravir 50 mg single dose
[7] = simultaneous administration (fed), dolutegravir 50 mg single dose

CC(C)c1c(C(=O)Nc2ccccc2O)c(-c2ccccc2)c(-c2ccc(F)cc2)n1CCC(O)CC(O)CC(=O)O (centres unmarked) [2-hydroxy-atorvastatin]
AUC of coadministered drug, geometric mean ratio with/without EDURANT [1]: 1.39 | Cmax of coadministered drug, geometric mean ratio with/without EDURANT [1]: 1.58 | Cmin of coadministered drug, geometric mean ratio with/without EDURANT [1]: 1.32

CC(C)c1c(C(=O)Nc2ccc(O)cc2)c(-c2ccccc2)c(-c2ccc(F)cc2)n1CC[C@@H](O)C[C@@H](O)CC(=O)O [4-hydroxy-atorvastatin]
AUC of coadministered drug, geometric mean ratio with/without EDURANT [1]: 1.23 | Cmax of coadministered drug, geometric mean ratio with/without EDURANT [1]: 1.28

CO[C@H]1/C=C/O[C@@]2(C)Oc3c(C)c(O)c4c(O)c(c(/C=N/N5CCN(C)CC5)c(O)c4c3C2=O)NC(=O)/C(C)=C\C=C\[C@H](C)[C@H](O)[C@@H](C)[C@@H](O)[C@@H](C)[C@H](O)[C@@H]1C [25-desacetylrifampin]
AUC of coadministered drug, geometric mean ratio with/without EDURANT [1]: 0.91 | Cmax of coadministered drug, geometric mean ratio with/without EDURANT [1]: 1.00

O=C([O-])[O-].[Ca+2] [Calcium carbonate]
Dolutegravir AUC, geometric mean ratio with/without coadministered drug [2, 5]: 0.94 | Dolutegravir Cmax, geometric mean ratio with/without coadministered drug [2, 5]: 1.00 | Dolutegravir Cτ or C24, geometric mean ratio with/without coadministered drug [2, 5]: 0.90 | Dolutegravir AUC, geometric mean ratio with/without coadministered drug [2, 6]: 0.61 | Dolutegravir Cmax, geometric mean ratio with/without coadministered drug [2, 6]: 0.63 | Dolutegravir Cτ or C24, geometric mean ratio with/without coadministered drug [2, 6]: 0.61 | Dolutegravir AUC, geometric mean ratio with/without coadministered drug [2, 7]: 1.09 | Dolutegravir Cmax, geometric mean ratio with/without coadministered drug [2, 7]: 1.07 | Dolutegravir Cτ or C24, geometric mean ratio with/without coadministered drug [2, 7]: 1.08

NC(=O)N1c2ccccc2C=Cc2ccccc21 [Carbamazepine]
Effect on Concentration of Rilpivirine [3]: ↓Rilpivirine

CN/C(=N/CCSCc1nc[nH]c1C)NC#N [Cimetidine]
Effect on Concentration of Dolutegravir [3]: ↔Dolutegravir | Effect on Concentration of Rilpivirine [3]: ↓Rilpivirine

CC[C@H]1OC(=O)[C@H](C)[C@@H](O[C@H]2C[C@@](C)(OC)[C@@H](O)[C@H](C)O2)[C@H](C)[C@@H](O[C@@H]2O[C@H](C)C[C@H](N(C)C)[C@H]2O)[C@](C)(OC)C[C@@H](C)C(=O)[C@H](C)[C@@H](O)[C@]1(C)O [Clarithromycin]
Effect on Concentration of Dolutegravir [3]: ↔Dolutegravir | Effect on Concentration of Rilpivirine [3]: ↑Rilpivirine

C[C@@H]1C[C@H]2[C@@H]3CCC4=CC(=O)C=C[C@]4(C)[C@@]3(F)[C@@H](O)C[C@]2(C)[C@@]1(O)C(=O)CO [Dexamethasone]
Effect on Concentration of Rilpivirine [3]: ↓Rilpivirine

C[C@H]1O[C@@H](O[C@H]2[C@@H](O)C[C@H](O[C@H]3[C@@H](O)C[C@H](O[C@H]4CC[C@@]5(C)[C@H](CC[C@@H]6[C@@H]5C[C@@H](O)[C@]5(C)[C@@H](C7=CC(=O)OC7)CC[C@]65O)C4)O[C@@H]3C)O[C@@H]2C)C[C@H](O)[C@@H]1O [Digoxin]
Cmax of coadministered drug, geometric mean ratio with/without EDURANT [1]: 1.06 | AUC(0-last) of coadministered drug, geometric mean ratio with/without EDURANT [1]: 0.98

CN(CCOc1ccc(NS(C)(=O)=O)cc1)CCc1ccc(NS(C)(=O)=O)cc1 [Dofetilide]
Effect on Concentration of the concomitant drug [3]: ↑Dofetilide

CC[C@H]1OC(=O)[C@H](C)[C@@H](O[C@H]2C[C@@](C)(OC)[C@@H](O)[C@H](C)O2)[C@H](C)[C@@H](O[C@@H]2O[C@H](C)C[C@H](N(C)C)[C@H]2O)[C@](C)(O)C[C@@H](C)C(=O)[C@H](C)[C@@H](O)[C@]1(C)O [Erythromycin]
Effect on Concentration of Dolutegravir [3]: ↔Dolutegravir | Effect on Concentration of Rilpivirine [3]: ↑Rilpivirine

COc1ccc2nc([S@@+]([O-])Cc3ncc(C)c(OC)c3C)[nH]c2c1 [Esomeprazole]
Effect on Concentration of Rilpivirine [3]: ↓Rilpivirine

NC(N)=Nc1nc(CSCCC(N)=NS(N)(=O)=O)cs1 [Famotidine]
Effect on Concentration of Dolutegravir [3]: ↔Dolutegravir | Effect on Concentration of Rilpivirine [3]: ↓Rilpivirine

O=C([O-])/C=C/C(=O)[O-].[Fe+2] [Ferrous fumarate]
Dolutegravir AUC, geometric mean ratio with/without coadministered drug [2, 5]: 0.95 | Dolutegravir Cmax, geometric mean ratio with/without coadministered drug [2, 5]: 0.99 | Dolutegravir Cτ or C24, geometric mean ratio with/without coadministered drug [2, 5]: 0.92 | Dolutegravir AUC, geometric mean ratio with/without coadministered drug [2, 6]: 0.46 | Dolutegravir Cmax, geometric mean ratio with/without coadministered drug [2, 6]: 0.43 | Dolutegravir Cτ or C24, geometric mean ratio with/without coadministered drug [2, 6]: 0.44 | Dolutegravir AUC, geometric mean ratio with/without coadministered drug [2, 7]: 0.98 | Dolutegravir Cmax, geometric mean ratio with/without coadministered drug [2, 7]: 1.03 | Dolutegravir Cτ or C24, geometric mean ratio with/without coadministered drug [2, 7]: 1.00

CC(=O)N1CCN(c2ccc(OCC3COC(Cn4ccnc4)(c4ccc(Cl)cc4Cl)O3)cc2)CC1 (centres unmarked) [Ketoconazole]
AUC of coadministered drug, geometric mean ratio with/without EDURANT [1]: 0.76 | Cmax of coadministered drug, geometric mean ratio with/without EDURANT [1]: 0.85 | Cmin of coadministered drug, geometric mean ratio with/without EDURANT [1]: 0.34

Cc1c(OCC(F)(F)F)ccnc1C[S+]([O-])c1nc2ccccc2[nH]1 (centres unmarked) [Lansoprazole]
Effect on Concentration of Rilpivirine [3]: ↓Rilpivirine

CCC(=O)C(CC(C)N(C)C)(c1ccccc1)c1ccccc1 (centres unmarked) [Methadone]
Effect on Concentration of the concomitant drug [3]: ↓Methadone | Effect on Concentration of Dolutegravir [3]: ↔Dolutegravir | Effect on Concentration of Rilpivirine [3]: ↔Rilpivirine

CCCc1nn(C)c2c(=O)[nH]c(-c3cc(S(=O)(=O)N4CCNCC4)ccc3OCC)nc12 [N-desmethyl-sildenafil]
Cmax of coadministered drug, geometric mean ratio with/without EDURANT [1]: 0.90 | AUC(0-last) of coadministered drug, geometric mean ratio with/without EDURANT [1]: 0.92

CNC(=C[N+](=O)[O-])NCCSCc1csc(CN(C)C)n1 [Nizatidine]
Effect on Concentration of Dolutegravir [3]: ↔Dolutegravir | Effect on Concentration of Rilpivirine [3]: ↓Rilpivirine

C#C[C@]1(O)CC[C@H]2[C@@H]3CCC4=CC(=O)CC[C@@H]4[C@H]3CC[C@@]21C [Norethindrone]
Cmin of coadministered drug, geometric mean ratio with/without EDURANT [1]: 0.99 | AUC of coadministered drug, geometric mean ratio with/without EDURANT [4]: 0.89 | Cmax of coadministered drug, geometric mean ratio with/without EDURANT [4]: 0.94

NC(=O)N1c2ccccc2CC(=O)c2ccccc21 [Oxcarbazepine]
Effect on Concentration of Rilpivirine [3]: ↓Rilpivirine

COc1ccnc(C[S+]([O-])c2nc3ccc(OC(F)F)cc3[nH]2)c1OC (centres unmarked) [Pantoprazole]
Effect on Concentration of Rilpivirine [3]: ↓Rilpivirine

CCC1(c2ccccc2)C(=O)NC(=O)NC1=O [Phenobarbital]
Effect on Concentration of Rilpivirine [3]: ↓Rilpivirine

O=C1NC(=O)C(c2ccccc2)(c2ccccc2)N1 [Phenytoin]
Effect on Concentration of Rilpivirine [3]: ↓Rilpivirine

COCCCOc1ccnc(C[S+]([O-])c2nc3ccccc3[nH]2)c1C (centres unmarked) [Rabeprazole]
Effect on Concentration of Rilpivirine [3]: ↓Rilpivirine

CNC(=C[N+](=O)[O-])NCCSCc1ccc(CN(C)C)o1 [Ranitidine]
Effect on Concentration of Dolutegravir [3]: ↔Dolutegravir | Effect on Concentration of Rilpivirine [3]: ↓Rilpivirine

CO[C@H]1/C=C/O[C@@]2(C)Oc3c(C)c(O)c4c(c3C2=O)C2=NC3(CCN(CC(C)C)CC3)NC2=C(NC(=O)/C(C)=C\C=C\[C@H](C)[C@H](O)[C@@H](C)[C@@H](O)[C@@H](C)[C@H](OC(C)=O)[C@@H]1C)C4=O [Rifabutin]
Effect on Concentration of the concomitant drug [3]: ↔Rifabutin | Effect on Concentration of Dolutegravir [3]: ↔Dolutegravir | Effect on Concentration of Rilpivirine [3]: ↓Rilpivirine

CO[C@H]1/C=C/O[C@@]2(C)Oc3c(C)c(O)c4c(O)c(c(/C=N/N5CCN(C)CC5)c(O)c4c3C2=O)NC(=O)/C(C)=C\C=C\[C@H](C)[C@H](O)[C@@H](C)[C@@H](O)[C@@H](C)[C@H](OC(C)=O)[C@@H]1C [Rifampin]
Effect on Concentration of Rilpivirine [3]: ↓Rilpivirine

CO[C@H]1/C=C/O[C@@]2(C)Oc3c(C)c(O)c4c(O)c(c(/C=N/N5CCN(C6CCCC6)CC5)c(O)c4c3C2=O)NC(=O)/C(C)=C\C=C\[C@H](C)[C@H](O)[C@@H](C)[C@@H](O)[C@@H](C)[C@H](OC(C)=O)[C@@H]1C [Rifapentine]
Effect on Concentration of Rilpivirine [3]: ↓Rilpivirine

COc1ccc2c(O[C@@H]3C[C@H]4C(=O)N[C@]5(C(=O)NS(=O)(=O)C6CC6)C[C@H]5/C=C\CCCCN(C)C(=O)[C@@H]4C3)cc(-c3nc(C(C)C)cs3)nc2c1C [Simeprevir]
AUC of coadministered drug, geometric mean ratio with/without EDURANT [1]: 1.06 | Cmax of coadministered drug, geometric mean ratio with/without EDURANT [1]: 1.10 | Cmin of coadministered drug, geometric mean ratio with/without EDURANT [1]: 0.96

CC[C@H]1OC(=O)[C@H](C)C(=O)[C@H](C)[C@@H](O[C@@H]2O[C@H](C)C[C@H](N(C)C)[C@H]2O)[C@](C)(OC)C[C@@H](C)C(=O)[C@H](C)[C@H]2N(CCCCn3cnc(-c4cccnc4)c3)C(=O)O[C@]12C [Telithromycin]
Effect on Concentration of Dolutegravir [3]: ↔Dolutegravir | Effect on Concentration of Rilpivirine [3]: ↑Rilpivirine

Sucralfate
Effect on Concentration of Dolutegravir [3]: ↓Dolutegravir
